Laboratory results: PubChem BioAssay (NCI)
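Cells were grown in 96-well plates and exposed to each compound for 48 hours at five concentrations; endpoints were interpolated linearly between bracketing concentrations, or set to the highest concentration if not reached. Definition used: TGI = concentration required for complete inhibition of growth.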

Tests used:
Assay in all cases: inhibition of tumour cell growth, NCI panel, 48 h
M19-MEL melanoma = system: M19-MEL melanoma
DLD-1 colon = system: DLD-1 colon
DMS 273 small cell lung = system: DMS 273 small cell lung
KM20L2 colon = system: KM20L2 colon
LXFL 529 NSCLC = system: LXFL 529 NSCLC

Measured: TGI

N#CCCN(CCC#N)c1ccc(/C=C(\NC(=O)c2cc([N+](=O)[O-])ccc2Cl)C(=O)Nc2ccccc2)cc1
> 100 µM: all assays above

CCCn1cc2c(SC)nc(SC)nc2n1
> 100 µM: DLD-1 colon | DMS 273 small cell lung
